The target of experiment [1] is T1, LRRK2 (leucine-rich repeat kinase 2) (Mus musculus, UniProt Q5S006).
T1 construct: endogenous LRRK2 in NIH3T3 cells
The experiment in a line: Western blot of LRRK2 pSer935 in NIH3T3 cells, […] min; also ex vivo mouse striatum and cortex. Format: cell-based. Background: A western blot detects proteins with antibodies after separation by electrophoresis.

Experiment [2] addresses T2, LRRK2 (leucine-rich repeat kinase 2) (Mus musculus, UniProt Q5S006, G2019S).
T2 construct: endogenous LRRK2 in striatum of G2019S knock-in mice
The experiment in a line: ex vivo Western blot of LRRK2 pSer935, […] min after […] mg/kg i.p. Format: cell-based.

T2 sequence (Q5S006 whole entry G2019S): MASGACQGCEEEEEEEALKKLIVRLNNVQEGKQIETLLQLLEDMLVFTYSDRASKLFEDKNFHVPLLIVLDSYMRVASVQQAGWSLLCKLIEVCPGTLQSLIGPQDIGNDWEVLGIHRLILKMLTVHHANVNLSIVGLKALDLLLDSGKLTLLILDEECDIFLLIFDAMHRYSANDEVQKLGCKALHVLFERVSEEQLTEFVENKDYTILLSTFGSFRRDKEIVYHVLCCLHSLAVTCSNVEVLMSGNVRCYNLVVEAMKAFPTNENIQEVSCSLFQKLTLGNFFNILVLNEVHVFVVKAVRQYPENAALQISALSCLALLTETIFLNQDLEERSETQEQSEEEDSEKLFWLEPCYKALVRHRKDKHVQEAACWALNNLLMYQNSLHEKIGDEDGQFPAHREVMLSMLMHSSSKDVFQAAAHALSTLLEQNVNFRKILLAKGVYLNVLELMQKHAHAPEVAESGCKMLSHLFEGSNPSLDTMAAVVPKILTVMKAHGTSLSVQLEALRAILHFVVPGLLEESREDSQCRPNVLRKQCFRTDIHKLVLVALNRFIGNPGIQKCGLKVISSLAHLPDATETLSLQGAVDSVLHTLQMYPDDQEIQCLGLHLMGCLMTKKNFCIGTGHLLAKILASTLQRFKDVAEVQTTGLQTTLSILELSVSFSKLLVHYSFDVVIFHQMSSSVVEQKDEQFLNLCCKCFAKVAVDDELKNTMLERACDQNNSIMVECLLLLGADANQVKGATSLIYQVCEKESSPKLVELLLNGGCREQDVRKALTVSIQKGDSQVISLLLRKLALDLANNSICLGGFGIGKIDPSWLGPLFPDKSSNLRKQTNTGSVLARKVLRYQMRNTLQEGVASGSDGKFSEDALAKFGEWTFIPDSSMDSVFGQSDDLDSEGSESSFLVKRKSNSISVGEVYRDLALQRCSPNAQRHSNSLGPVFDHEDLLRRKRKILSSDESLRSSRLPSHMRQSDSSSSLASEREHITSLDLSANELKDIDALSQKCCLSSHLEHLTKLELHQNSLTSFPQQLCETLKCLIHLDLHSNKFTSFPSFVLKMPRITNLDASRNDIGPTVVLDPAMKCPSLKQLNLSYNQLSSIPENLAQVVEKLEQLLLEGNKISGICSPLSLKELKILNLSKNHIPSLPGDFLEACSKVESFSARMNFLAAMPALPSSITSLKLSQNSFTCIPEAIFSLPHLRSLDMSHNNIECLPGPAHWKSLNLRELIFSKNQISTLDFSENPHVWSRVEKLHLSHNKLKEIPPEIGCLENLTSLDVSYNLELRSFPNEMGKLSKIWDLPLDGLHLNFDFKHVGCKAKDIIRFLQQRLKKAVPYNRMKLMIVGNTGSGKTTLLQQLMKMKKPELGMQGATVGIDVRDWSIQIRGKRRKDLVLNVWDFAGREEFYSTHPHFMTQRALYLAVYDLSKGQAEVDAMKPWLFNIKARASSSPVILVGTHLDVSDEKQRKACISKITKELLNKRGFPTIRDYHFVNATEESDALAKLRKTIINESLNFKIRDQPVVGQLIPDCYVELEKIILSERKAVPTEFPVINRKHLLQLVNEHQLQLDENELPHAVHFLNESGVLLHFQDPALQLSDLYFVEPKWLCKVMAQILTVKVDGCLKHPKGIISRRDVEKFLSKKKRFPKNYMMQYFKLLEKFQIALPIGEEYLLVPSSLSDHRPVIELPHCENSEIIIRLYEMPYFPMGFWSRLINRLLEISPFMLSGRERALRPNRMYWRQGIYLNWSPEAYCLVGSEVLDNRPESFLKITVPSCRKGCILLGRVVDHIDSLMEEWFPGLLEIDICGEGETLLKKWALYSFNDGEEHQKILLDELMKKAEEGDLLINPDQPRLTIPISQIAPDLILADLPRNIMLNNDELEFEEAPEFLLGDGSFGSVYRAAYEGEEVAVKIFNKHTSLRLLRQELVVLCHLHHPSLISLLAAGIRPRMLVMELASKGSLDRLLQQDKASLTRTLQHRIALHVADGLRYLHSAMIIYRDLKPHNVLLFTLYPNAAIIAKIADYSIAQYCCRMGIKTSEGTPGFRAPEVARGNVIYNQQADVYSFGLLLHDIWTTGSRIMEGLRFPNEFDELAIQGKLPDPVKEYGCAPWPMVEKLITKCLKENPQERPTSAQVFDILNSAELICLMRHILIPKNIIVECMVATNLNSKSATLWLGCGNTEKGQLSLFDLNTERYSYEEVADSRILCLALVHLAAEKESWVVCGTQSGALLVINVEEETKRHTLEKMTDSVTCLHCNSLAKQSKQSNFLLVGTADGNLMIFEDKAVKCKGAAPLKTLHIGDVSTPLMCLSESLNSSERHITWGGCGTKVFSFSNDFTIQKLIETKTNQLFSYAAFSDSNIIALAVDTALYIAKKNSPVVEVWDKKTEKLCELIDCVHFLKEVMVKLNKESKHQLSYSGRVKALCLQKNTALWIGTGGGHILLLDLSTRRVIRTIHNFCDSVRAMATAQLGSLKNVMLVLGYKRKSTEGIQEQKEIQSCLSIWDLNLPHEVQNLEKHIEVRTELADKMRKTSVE
T1 sequence (Q5S006 whole entry): as the sequence (Q5S006 whole entry G2019S) above, with S2019G counted along it

The IC50 is the concentration that gives 50% inhibition. For `CC(=O)N1CCc2[nH]c(/C=C3\C(=O)Nc4ccc(OC(C)C)cc43)cc2C1` [Nov-LRRK2-11], inhibition in experiment [1] was half-maximal at 0.38 nM (IC50).

With `Cc1cncc2cccc(S(=O)(=O)N3CCCNC[C@@H]3C)c12` [H-1152, (S)-(+)-2-methyl-1-[(4-methyl-5-isoquinoline)sulfonyl]-homopiperazine], the “ex vivo Western blot of LRRK2 pSer935, 20 min after 1 mg/kg i.p.” value in experiment [2] is given as “H-1152 attenuated endogenous LRRK2 phosphorylation at Ser935 in striatum but not cerebral cortex of G2019S knock-in (G2019S KI) mice”.

Values taken from publication PMC4194318, “Genetic and pharmacological evidence that G2019S LRRK2 confers a hyperkinetic phenotype, resistant to motor decline associated with aging” (Neurobiology of Disease, 2014).
